Non-standard residues stand in square brackets, D forms with d. Residues, ends and D or L forms follow the SMILES beside them.
Assays:
[1] = Weight gain in chickens (cockerels); assay type: in vivo, P-46 breed
Procedure: The effect of the peptide on weight gain in chickens was examined. Tests were conducted on chickens of egg oriented productivity, "P-46" breed. 24 hour old cockerels were divided in 5 groups, 13 cockerels in each--one control group and 4 test groups.
The birds were given a full diet till they reached the age of 10 weeks. 100% of birds in both the control and test groups survived.
After 10 weeks, the cockerels were killed and examined.
Quality of the cockerel meat was tested on an organoleptic basis.

Weight gain in pigs = assay type: in vivo
Procedure: The purpose of the first stage of testing was to determine the optimal dose of the peptide necessary to achieve the desired weight gain and the most beneficial manner of administering the peptide. The first stage of testing was conducted over a period of 100 days.
The pigs were divided into seven groups of ten animals each. The animals were all aged 4-5 months, and weighed about the same. There was one control group and six test groups. All the groups were given an ordinary diet.
Test groups 2, 3, and 4 were administered the peptide (1.0, 5.0, 10.0 μg kg/body weight) with feed, for 20 days each month with a 10 day break. Test groups 5, 6, and 7 were administered the peptide by injections of 0.01% water solutions for five days each month with a 25 day break (0.1, 0.5 and 1.0 μg per body weight).
Physiological examinations and biochemical tests were carried out during the experiment. The pigs were weighed on the 30th, 65th and 100th days of the experiment. […] Administration of 1 μg per 1 kg of body weight by intramuscular injections achieved a weight gain 18% higher than the control group (group 6).
The second stage of the experiment lasted 95 days, after which the animals were killed. The second stage of the experiment was carried out only with groups three and six, in order to determine which method of administration of the peptide produced the best results. […]

[2] = Weight gain in young bulls; assay type: in vivo; conditions: during the experiment
Procedure: There were 7 groups of animals having approximately the same weight, with 12 young bulls in each group. The age of the animals was 2 months. There were 6 test groups and one control. The test animals were administered Sedatin with water before they were fed or as intramuscular injections in the amounts shown in Table 12. All animals received the same diet and were kept in the same conditions. Two animals in the control group fell ill during the experiment, and were replaced by analogs.
Two groups, one control and one test, were chosen for the second stage of the experiment. The test group was administered the peptide mixed with feed, in the amount of 10 μg per 1 kg of body weight. The control group was not administered any of the peptide. The data was biometrically processed.

C[C@@H](NC(=O)[C@H](Cc1ccc(O)cc1)NC(=O)[C@@H](N)CCCNC(=N)N)C(=O)N[C@@H](Cc1ccccc1)C(=O)NCC(=O)O [H-Arg-Tyr-D-Ala-Phe-Gly-OH] (H-RY[dA]FG-OH)
quality of cockerel meat (colour, smell, consistency, taste), organoleptic ([1]; all groups): the same as in the control group | birds survived ([1]; test groups, to age of 10 weeks): 100% | biochemical and physicochemical tests (Weight gain in pigs): no deviation from the control group | quality characteristics (pathological changes, decrease of fat layer, etc.) (Weight gain in pigs): No changes were observed | temperature, pulse and breath-rate [2]: no deviation from the control group | solubility in alcohol (alcohol): slightly soluble | solubility in chloroform (chloroform): practically insoluble | solubility in water (water): soluble

Source: patent US6248716A, “Peptide, a method for its preparation and a pharmaceutical composition containing the peptide” (priority 1999, dated 2001)
